Experimental data from patent publication US12528816B2, “Substituted imidazo [1,2-b] pyridazines and [1, 2, 4] triazolo [ 4,3-b] pyridazines as camkii inhibitors” (Cardurion Pharmaceuticals, INC., priority 2020, dated 2026).

What follows are compounds tested against T1, human CaMKIIδ (Homo sapiens, UniProt Q13557) (assay: Evaluation of in vitro CaMKII inhibitory activity (binding assay, TR-FRET)). Conditions: human CaMKIIδ, TR-FRET binding assay; class symbols A/B/C; read-out: Act (CaMKII inhibitory activity, binding assay).
T1 construct: Full-length, glutathione-S-transferase(GST)-tagged, human CaMKIIδ was purchased from Carna Biosciences; purchased Carna Biosciences (CaMKIIδ); Wako Pure Chemical Industries (calmodulin) 02-111
Summary of the method: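 Inhibitors, in eight concentrations of 4-fold dilution, were incubated 1 h at room temperature with a protein–fluorescent probe premix preformed 30 min on ice, containing calmodulin and terbium anti-GST antibody. Displacement read by TR-FRET in duplicate; IC50 by logistic fitting.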

Compound | IC50
C[C@@H](Cn1cnnn1)Oc1cc(-c2ccc3ncc(-c4cnn(CCCO)c4C#N)n3n2)ccc1F [compound 225] | < 10 nM
C[C@@H](Cn1cnnn1)Oc1cc(-c2ccn3ncc(-c4ccc(C#N)s4)c3n2)ccc1F [compound 139] | < 10 nM
CCN(CC)C(=O)CNC(=O)c1cccc(-c2cnn3ccc(-c4cccc(O[C@@H](C)Cn5cnnn5)c4)nc23)c1 [compound 68] | < 10 nM
C[C@@H](Cn1cnnn1)Oc1cc(-c2ccn3ncc(-c4ccccn4)c3n2)ccc1F [compound 4] | < 10 nM
C[C@@H](Cn1cnnn1)Oc1cc(-c2ccc3ncc(-c4cc(C#N)cn(C)c4=O)n3n2)ccc1F [compound 221] | < 10 nM
C[C@@H](Cn1cnnn1)Oc1cccc(-c2ccn3ncc(-c4cccc(C(=O)NCCN5CCS(=O)(=O)CC5)c4)c3n2)c1 [compound 87] | < 10 nM
C[C@@H](Cn1cnnn1)Oc1cc(-c2ccn3ncc(-c4ccn(CCN5CCOCC5)n4)c3n2)ccc1F [compound 160] | < 10 nM
C=Cc1ccccc1-c1cnc2ccc(-c3ccc(F)c(O[C@@H](C)Cn4cnnn4)c3)nn12 [compound 190] | < 10 nM
COCCC(=O)Nc1cccc(-c2cnc3ccc(-c4ccc(F)c(O[C@@H](C)Cn5cnnn5)c4)nn23)c1C#N [compound 182] | < 10 nM
C[C@@H](Cn1cnnn1)Oc1cccc(-c2ccn3ncc(-c4cccc(C(=O)NCCCN5CCCC5=O)c4)c3n2)c1 [compound 74] | < 10 nM
C[C@@H](Cn1cnnn1)Oc1cc(-c2ccc3ncn(-c4cccc(C(=O)O)c4)c3n2)ccc1F [compound 62] | 10 to 100 nM
CCN(CC)CCCNC(=O)c1cccc(-c2cnn3ccc(-c4cccc(O[C@@H](C)Cn5cnnn5)c4)nc23)c1 [compound 69] | < 10 nM
CNC(=O)c1cccc(-c2cnn3ccc(-c4ccc(F)c(O[C@@H](C)Cn5cnnn5)c4)nc23)c1 [compound 35] | < 10 nM
C[C@@H](Cn1cnnn1)Oc1cc(-c2ccc3ncc(-c4cccc(OCC(C)(C)C#N)c4C#N)n3n2)ccc1F [compound 226, 2-(2-cyano-2,2-dimethylethoxy)-6-[6-(4-fluoro-3-{[(2S)-1-(1H-tetrazol-1-yl)propan-2-yl]oxy}phenyl)imidazo[1,2-b]pyridazin-3-yl]benzonitrile] | < 10 nM
C[C@@H](Cn1cnnn1)Oc1cc(-c2ccc3ncc(-c4cn(CC(=O)O)nc4C#N)n3n2)ccc1F [compound 125] | 10 to 100 nM
C[C@@H](Cn1cnnn1)Oc1cc(-c2ccc3ncc(-c4cccc(OCCCN5CCOCC5)c4C#N)n3n2)ccc1F [compound 171] | < 10 nM
COCOc1cccc(-c2cnc3ccc(-c4ccc(F)c(O[C@@H](C)Cn5cnnn5)c4)nn23)c1C#N [compound 169] | < 10 nM
C[C@@H](Cn1cnnn1)Oc1cccc(-c2ccn3ncc(-c4cccc(C(=O)NS(=O)(=O)C5CC5)c4)c3n2)c1 [compound 165] | < 10 nM
C[C@@H](Cn1cnnn1)Oc1cc(-c2ccc3ncc(-c4cc(Br)cc5c4OCC5)n3n2)ccc1F [compound 187] | < 10 nM
C[C@@H](Cn1cnnn1)Oc1cc(-c2ccc3ncc(-c4cccc[n+]4[O-])n3n2)ccc1F [compound 218] | 10 to 100 nM
COc1ccnc(-c2cnc3ccc(-c4ccc(F)c(N[C@@H](C)Cn5cnnn5)c4)nn23)c1C#N [Example 478, 2-[6-(4-fluoro-3-{[(2S)-1-(1H-tetrazol-1-yl)propan-2-yl]amino}phenyl)imidazo[1,2-b]pyridazin-3-yl]-4-methoxypyridine-3-carbonitrile] | < 10 nM
C[C@@H](Cn1cnnn1)Oc1cc(-c2ccn3ncc(-c4cncs4)c3n2)ccc1F [compound 27] | < 10 nM

Same assay, conditions: in vitro CaMKII inhibitory activity (binding assay), human CaMKIIδ; read-out: Act

Compound | IC50
C[C@@H](Cn1cnnn1)Oc1cccc(-c2ccc3ncc(-c4cc[nH]c(=O)c4C#N)n3n2)c1 [compound 272, 2-oxo-4-[6-(3-{[(2S)-1-(1H-tetrazol-1-yl)propan-2-yl]oxy}phenyl)imidazo[1,2-b]pyridazin-3-yl]-1,2-dihydropyridine-3-carbonitrile] | < 10 nM
COc1ncnc(-c2cnc3ccc(-c4cccc(O[C@@H](C)Cn5cnnn5)c4)nn23)c1C#N [Example 320, 4-methoxy-6-[6-(3-{[(2S)-1-(1H-tetrazol-1-yl)propan-2-yl]oxy}phenyl)imidazo[1,2-b]pyridazin-3-yl]pyrimidine-5-carbonitrile] | < 10 nM
CNc1ccc(C#N)c(-c2cnc3ccc(-c4cccc(O[C@@H](C)Cn5cnnn5)c4)nn23)n1 [compound 361] | < 10 nM
C[C@@H](Cn1cnnn1)Oc1cccc(-c2ccc3nnc(-c4ncccc4C#N)n3n2)c1 [compound 391] | > 100 nM
C[C@@H](Cn1cnnn1)Oc1cccc(-c2ccc3ncn(-c4cc(C(F)F)ccc4C#N)c3n2)n1 [compound 382] | > 100 nM
C[C@@H](Cn1cnnn1)Oc1cccc(-c2ccc3ncc(-c4cccnc4C#N)n3n2)c1 [compound 257, 3-[6-(3-{[(2S)-1-(1H-tetrazol-1-yl)propan-2-yl]oxy}phenyl)imidazo[1,2-b]pyridazin-3-yl]pyridine-2-carbonitrile] | < 10 nM
C[C@@H](Cn1cnnn1)Oc1cc(-c2ccc3ncn(-c4ncccc4C#N)c3n2)ccc1Cl [compound 368] | 10 to 100 nM
C[C@@H](Cn1cnnn1)Oc1cc(F)cc(-c2ccc3ncc(-c4cccn(C)c4=O)n3n2)c1 [compound 357] | < 10 nM
COc1cc(F)c(C#N)c(-c2cnc3ccc(-c4cccc(O[C@@H](C)Cn5cnnn5)n4)nn23)c1 [compound 408] | < 10 nM
CCOc1nccc(-c2cnc3ccc(-c4cccc(O[C@@H](C)Cn5cnnn5)c4)nn23)c1C#N [compound 261] | < 10 nM
COC(=O)c1sccc1-c1cnc2ccc(-c3ccc(F)c(O[C@@H](C)Cn4cnnn4)c3)nn12 [compound 238] | 10 to 100 nM
C[C@@H](Cn1cnnn1)Oc1cccc(-c2ccc3ncc(-c4nccnc4C#N)n3n2)c1 [compound 262] | < 10 nM
C[C@@H](Cn1cnnn1)Oc1cccc(-c2ccc3ncc(-c4nccc(C(F)F)c4C#N)n3n2)n1 [compound 457] | 10 to 100 nM
C[C@@H](Cn1cnnn1)Oc1cccc(-c2ccc3ncc(-c4cncnc4C#N)n3n2)c1 [Example 267, 5-[6-(3-{[(2S)-1-(1H-tetrazol-1-yl)propan-2-yl]oxy}phenyl)imidazo[1,2-b]pyridazin-3-yl]pyrimidine-4-carbonitrile] | < 10 nM
C[C@@H](Cn1cnnn1)Oc1cccc(-c2ccc3ncc(-c4[nH]ccc(=O)c4C#N)n3n2)c1 [compound 301, 4-oxo-2-[6-(3-{[(2S)-1-(1H-tetrazol-1-yl)propan-2-yl]oxy}phenyl)imidazo[1,2-b]pyridazin-3-yl]-1,4-dihydropyridine-3-carbonitrile] | 10 to 100 nM
C[C@@H](Cn1cnnn1)Oc1cc(-c2ccc3ncc(-c4nccc(N(C(=O)OC(C)(C)C)C(=O)OC(C)(C)C)c4C#N)n3n2)ccc1F [compound 232] | < 10 nM
C[C@@H](Cn1cnnn1)Oc1cc(-c2ccc3ncc(-c4ncccc4C#N)n3n2)ccc1F [Example 247, 2-[6-(4-fluoro-3-{[(2S)-1-(1H-tetrazol-1-yl)propan-2-yl]oxy}phenyl)imidazo[1,2-b]pyridazin-3-yl]pyridine-3-carbonitrile] | < 10 nM
C[C@@H](Cn1cnnn1)Oc1cccc(-c2ccc3ncc(-c4cc(F)cc(F)c4C#N)n3n2)n1 [compound 421] | < 10 nM
C[C@@H](Cn1cnnn1)Oc1cccc(-c2ccc3ncc(-c4nccc(N5CCC5)c4C#N)n3n2)c1 [compound 370] | 10 to 100 nM
